Source: patent US8481551B2, “Gyrase and topoisomerase IV inhibitors” (Vertex Pharmaceuticals Incorporated, priority 2011, dated 2013)

Columns and labels:
[1] = Oral range finding toxicity and toxicokinetic study in male cynomolgus monkeys; assay type: in vivo, Cynomolgus monkeys (Macaca Fascicularis)
Text: Cynomolgus monkeys (Macaca Fascicularis) were obtained from Primus Bio-Resources Inc. of PinCourt, Quebec, Canada. Cynomolgus monkeys were chosen because they are a non-rodent species that is commonly used for nonclinical toxicity evaluations.
Eight (2 naive and 6 non-naïve) males were used in the study. The animals were young adults and weighed between 2 to 4 kg at the onset of dosing.
The first day of dosing was designated as Day 1 of the study. The actual volume administered to each animal was calculated and adjusted based on the most recent body weight of each animal.
Cage-side clinical signs (ill health, behavioral changes etc.) were recorded at least once daily during the study.
Body weights were recorded for all animals prior to group assignment and on Days 1 (prior to dosing), 3 and 7 as well as terminally prior to necropsy (fasted).
Electrocardiograms (bipolar limb leads I, II and III, and augmented unipolar leads aVR, aVL and aVF) were obtained for all monkeys once during the pre-treatment period and again on Day 7 (post-dosing).
The tracings were assessed for gross changes indicative of cardiac electrical dysfunction. The potential presence of abnormalities involving heart rate (lead II), sinus and atrioventricular rhythm or conductivity were determined. Heart rate, PR interval, QRS duration, QT and QTc intervals values were measured.
A series of 7 blood samples (approximately 0.5 mL each) were collected from each monkey on Days 1 and 7 at the following time points: predose, 30 minutes and 2, 3, 6, 12 and 24 hours post-dose. […] Tubes were placed on wet ice until ready for processing. […]
The following parameters were measured on blood samples collected into EDTA anticoagulant: red blood cell count, mean corpuscular hemoglobin (calculated), hematocrit (calculated), mean corpuscular volume, hemoglobin, morphology of cells, white blood cell count, platelet count, white blood cell differential (absolute), reticulocyte (absolute and percentage) and mean corpuscular hemoglobin concentration (calculated).
Activated partial thromboplastin time and prothrombin time were measured on blood samples collected into citrate anticoagulant.
The following parameters were measured on blood samples collected into tubes containing clotting activator: a/g ratio (calculated), creatinine, alanine aminotransferase, globulin (calculated), albumin, glucose, alkaline phosphatase, phosphorus (inorganic), aspartate aminotransferase, potassium, bilirubin (total), sodium, calcium, total protein, chloride, triglycerides, cholesterol (total), urea, gamma glutamyltransferase and sorbitol dehydrogenase.
The following parameters were measured on urine samples: bilirubin, protein, blood, sediment microscopy, color and appearance, specific gravity, glucose, urobilinogen, ketones, volume and pH. […]

[2] = biological target: S. aureus DNA gyrase (Staphylococcus aureus, UniProt P0A0K8); assay: DNA gyrase ATPase assay; settings: 90 nM enzyme, 0.9 mM ATP, 30° C.
S. aureus DNA gyrase, sequence (P20831 whole entry): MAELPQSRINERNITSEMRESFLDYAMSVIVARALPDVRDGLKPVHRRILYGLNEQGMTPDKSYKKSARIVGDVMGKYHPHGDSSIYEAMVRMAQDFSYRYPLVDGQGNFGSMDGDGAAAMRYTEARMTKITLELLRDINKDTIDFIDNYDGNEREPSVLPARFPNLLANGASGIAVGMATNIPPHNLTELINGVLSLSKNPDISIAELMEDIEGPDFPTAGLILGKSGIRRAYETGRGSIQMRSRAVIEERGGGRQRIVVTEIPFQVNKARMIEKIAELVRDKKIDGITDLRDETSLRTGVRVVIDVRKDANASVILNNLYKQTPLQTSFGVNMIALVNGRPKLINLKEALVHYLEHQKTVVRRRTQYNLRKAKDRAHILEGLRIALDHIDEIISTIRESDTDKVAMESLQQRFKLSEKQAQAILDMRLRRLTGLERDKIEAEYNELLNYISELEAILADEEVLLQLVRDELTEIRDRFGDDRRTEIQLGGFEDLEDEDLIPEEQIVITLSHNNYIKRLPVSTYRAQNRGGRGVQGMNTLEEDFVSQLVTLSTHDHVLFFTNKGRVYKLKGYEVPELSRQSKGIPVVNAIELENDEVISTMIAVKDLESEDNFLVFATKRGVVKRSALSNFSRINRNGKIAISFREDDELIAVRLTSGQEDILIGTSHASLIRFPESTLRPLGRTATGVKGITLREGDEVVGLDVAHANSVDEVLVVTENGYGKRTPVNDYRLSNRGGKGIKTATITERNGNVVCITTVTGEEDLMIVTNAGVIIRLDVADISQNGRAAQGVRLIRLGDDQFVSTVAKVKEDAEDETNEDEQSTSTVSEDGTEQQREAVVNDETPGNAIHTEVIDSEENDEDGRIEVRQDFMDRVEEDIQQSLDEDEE
S. aureus DNA gyrase, sequence (P0A0K8 whole entry): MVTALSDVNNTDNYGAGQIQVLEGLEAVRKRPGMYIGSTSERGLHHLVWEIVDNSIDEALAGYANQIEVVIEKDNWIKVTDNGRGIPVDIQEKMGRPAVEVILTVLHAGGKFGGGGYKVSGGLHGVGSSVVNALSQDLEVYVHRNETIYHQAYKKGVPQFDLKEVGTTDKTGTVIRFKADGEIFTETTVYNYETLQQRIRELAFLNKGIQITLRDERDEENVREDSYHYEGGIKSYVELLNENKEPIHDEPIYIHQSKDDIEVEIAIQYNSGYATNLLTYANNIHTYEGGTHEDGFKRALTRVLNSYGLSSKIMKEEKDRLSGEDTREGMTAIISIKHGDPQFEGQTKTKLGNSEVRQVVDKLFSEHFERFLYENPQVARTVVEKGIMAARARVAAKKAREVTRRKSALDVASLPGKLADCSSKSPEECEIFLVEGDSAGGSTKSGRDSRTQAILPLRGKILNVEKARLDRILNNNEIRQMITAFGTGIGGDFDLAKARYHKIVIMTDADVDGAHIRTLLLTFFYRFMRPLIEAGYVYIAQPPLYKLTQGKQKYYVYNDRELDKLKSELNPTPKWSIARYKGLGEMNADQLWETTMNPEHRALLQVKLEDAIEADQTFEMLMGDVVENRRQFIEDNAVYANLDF

SMILES: CCNC(=O)Nc1nc2cc(-c3cnc(C(C)(C)O)nc3)c(F)c([C@H]3CCCO3)c2[nH]1 [Compound 23, 1-ethyl-3-[6-fluoro-5-[2-(1-hydroxy-1-methyl-ethyl)pyrimidin-5-yl]-7-[(2R)-tetrahydrofuran-2-yl]-1H-benzimidazol-2-yl]urea]
- clinical signs, body weights, electrocardiography, clinical pathology, organ weights ([1]; doses up to 200 mg/kg/day): no clinical signs, or changes in body weights, electrocardiography parameters, clinical pathology parameters, or organ weights
- macroscopic or microscopic findings ([1]; doses up to 200 mg/kg/day): no macroscopic or microscopic findings
- no observed effect level (NOEL) ([1]; male Cynomolgus monkeys, oral gavage once per day for 7 days): 200 mg/kg/day
- exposures for different dosage levels ([1]; male Cynomolgus monkeys, toxicokinetics): dose related

SMILES: CCNC(=O)Nc1nc2cc(-c3cnc(C(C)(C)OP(=O)([O-])[O-])nc3)c(F)c([C@H]3CCCO3)c2[nH]1.[Na+].[Na+] [Compound W, disodium (R)-2-(5-(2-(3-ethylureido)-6-fluoro-7-(tetrahydrofuran-2-yl)-1H-benzo[d]imidazol-5-yl)pyrimidin-2-yl)propan-2-yl phosphate]
- IC50 [2]: 0.054 µM
